Results reported in publication PMC7851014 (Investigational New Drugs, 2020).
Where two headings read alike, the source gives them in different places.

Experiments:
[1] = Ibrutinib and SMT-conjugate pharmacokinetics in human subjects (plasma of patients A and B); conditions: for Tmax / half-life / concentration at 1.4 h / concentration at 0.5 h / concentration at 0.8 h / concentration at 22.7 h / concentration at 22.2 h / concentration at 22.6 h / concentration at 2.5 h / concentration at 3.8 h / concentration at 1.5 h / concentration at 23.3 h / concentration at 2.8 h / concentration at 4.1 h / concentration at 4.4 h / concentration at 2.4 h / concentration at 3.9 h: human; for concentration at 1.4 h: sample ID 2, T 1.4 h; for concentration at 1.4 h / concentration at 0.5 h / concentration at 0.8 h / concentration at 1.5 h: group abs; for concentration at 0.5 h: sample ID 5, T 0.5 h; for concentration at 22.7 h: sample ID 8, T 22.7 h; for concentration at 22.7 h / concentration at 22.2 h / concentration at 22.6 h / concentration at 23.3 h: group trough; for concentration at 22.2 h: sample ID 10, T 22.2 h; for concentration at 22.6 h: sample ID 11, T 22.6 h; for concentration at 2.5 h: sample ID 13, T 2.5 h; for concentration at 2.5 h / concentration at 3.8 h / concentration at 2.8 h / concentration at 4.1 h / concentration at 4.4 h / concentration at 2.4 h / concentration at 3.9 h: group max; for concentration at 1.5 h: sample ID 16, T 1.5 h; for concentration at 23.3 h: sample ID 19, T 23.3 h; for concentration at 2.8 h: sample ID 4, T 2.8 h; for concentration at 2.4 h: sample ID 12, T 2.4 h; for concentration at 3.9 h: sample ID 17, T 3.9 h; for Concentration: omitted (no group)
Protocol: (§1) For analysis, 200 μL acetonitrile containing the internal standards was added to 100 μL sample. After mixing and centrifuging, 200 μL supernatant was transferred, and thereafter the solvent was partially evaporated. Before the samples were analyzed by ultra-high-performance liquid chromatography with mass spectrometer detection [21], 100 μL of mobile phase (water:acetonitrile:formic acid, 90:10:0.1 (v:v:v)) was added.
When no time was available at all, the sample was omitted. […] Pharmacokinetic (PK) data was analyzed using the PKNCA package (version 0.8.1) [22] for the statistical software R (version 3.4.2) [23] and RStudio (version 1.1.383) [24].

[2] = Human ibrutinib metabolism during CYP3A4 inhibition (patient C, plasma, concomitant voriconazole); conditions: for half-life / AUC(0-t): human, plasma, oral; for AUC(0-t): 140 mg; for Exposure relative to Sum of quantified compounds / Exposure relative to ibrutinib: patient C, AUC0-24h,ss, concomitant voriconazole
Protocol: as §1
Time-concentration data of three patients were analyzed. […] When no time was available at all, the sample was omitted. […] Pharmacokinetic (PK) data was analyzed using the PKNCA package (version 0.8.1) [22] for the statistical software R (version 3.4.2) [23] and RStudio (version 1.1.383) [24].

[3] = tested on: ciPTEC; conditions: ciPTEC
Protocol: Medium and cell lysate samples were taken at 1, 2, 3 and 4 h. Each time point was measured in duplicate. Preincubation (t0) analyte concentrations in medium were also analyzed.

[4] = target: dehydropeptidase I; conditions: cited from earlier work
[5] = tested on: GST; set-up: method as in PMID 8706007; conditions: cited from earlier work
[6] = tested on: GST; experiment: GST activity in ciPTEC lysate; conditions: 100 μM, pre-incubating lysate for 2.5 h
[7] = 420 mg, patient A, sample ID 6, T 0.8 h, 1xdd 420mg
[8] = 420 mg, patient A, sample ID 14, T 3.8 h, 1xdd 420mg
[9] = 420 mg, patient A, sample ID 21, T 0.8 h, 1xdd 420mg
[10] = 560 mg, patient A, sample ID 3, T 0.8 h, 1xdd 560mg
[11] = 560 mg, patient B, sample ID 7, T 4.1 h, 1xdd 560mg
[12] = 560 mg, patient B, sample ID 9, T 4.4 h, 1xdd 560mg
[13] = 560 mg, patient B, sample ID 20, T 3.8 h, 1xdd 560mg
[14] = 560 mg, patient B, sample ID 23, T 4.1 h, 1xdd 560mg
[15] = 560 mg, patient B, sample ID 24, T 4.4 h, 1xdd 560mg
[16] = patient A, sample ID 15, T NA, 1xdd 420mg
[17] = patient A, sample ID 22, T NA, 1xdd 420mg

Compound	Tmax [1] [h]	half-life [1] [h]	concentration at 1.4 h ([1]; 420 mg, patient A, 1xdd 420mg) [nM]	concentration at 0.5 h ([1]; 420 mg, patient A, 1xdd 420mg) [nM]	concentration at 0.8 h [1, 7] [nM]	concentration at 22.7 h ([1]; 420 mg, patient A, 1xdd 420mg) [nM]	concentration at 22.2 h ([1]; 420 mg, patient A, 1xdd 420mg) [nM]	concentration at 22.6 h ([1]; 420 mg, patient A, 1xdd 420mg) [nM]	concentration at 2.5 h ([1]; 420 mg, patient A, 1xdd 420mg) [nM]	concentration at 3.8 h [1, 8] [nM]	concentration at 1.5 h ([1]; 420 mg, patient A, 1xdd 420mg) [nM]	concentration at 23.3 h ([1]; 420 mg, patient A, 1xdd 420mg) [nM]	concentration at 0.8 h [1, 9] [nM]	concentration at 0.8 h [1, 10] [nM]	concentration at 2.8 h ([1]; 560 mg, patient B, 1xdd 560mg) [nM]	concentration at 4.1 h [1, 11] [nM]	concentration at 4.4 h [1, 12] [nM]	concentration at 2.4 h ([1]; 560 mg, patient B, 1xdd 560mg) [nM]	concentration at 3.9 h ([1]; 560 mg, patient B, 1xdd 560mg) [nM]	concentration at 3.8 h [1, 13] [nM]	other results
Nc1ncnc2c1c(-c1ccc(Oc3ccccc3)cc1)nn2[C@@H]1CCCN(C(=O)C(O)CO)C1 (some centres unmarked) [DHI, dihydrodiol-ibrutinib]	3.9	6.1	43.9	51.6	48.3	86.6	90.7	45.3	404	195	24	30.5	188	17.5	346	523	393	450	542	524	concentration at 4.1 h [1, 14]: 468 nM; concentration at 4.4 h [1, 15]: 484 nM; Concentration [1, 16]: 59.3 nM; Concentration [1, 17]: < LLOQ; half-life [2]: 59 h; AUC(0-t) [2]: 0.149 µM·h; Exposure relative to Sum of quantified compounds [2]: 23%; Exposure relative to ibrutinib [2]: 46%
Nc1ncnc2c1c(-c1ccc(Oc3ccccc3)cc1)nn2[C@@H]1CCCN(C(=O)CCSC[C@H](N)C(=O)NCC(=O)O)C1 [ICGS]	2.6	3	6.7	5.4	7.3	5.6	3.7	3	412	72.5	2.2	0.6	11.9	9.7	160	191	88.1	73.2	226	78	concentration at 4.1 h [1, 14]: 239 nM; concentration at 4.4 h [1, 15]: 160 nM; Concentration [1, 16]: 5.1 nM; Concentration [1, 17]: < LLOQ; half-life [2]: 40.1 h; AUC(0-t) [2]: 0.0949 µM·h; Exposure relative to Sum of quantified compounds [2]: 14%; Exposure relative to ibrutinib [2]: 29%
Nc1ncnc2c1c(-c1ccc(Oc3ccccc3)cc1)nn2[C@@H]1CCCN(C(=O)CCSC[C@H](N)C(=O)O)C1 [ICYS]	4.4	4.2	5	5.1	5.6	6.4	5	4.7	186	32.1	2.3	2.6	12	3.9	92.8	170	89.2	210	143	78.7	concentration at 4.1 h [1, 14]: 194 nM; concentration at 4.4 h [1, 15]: 210 nM; Concentration [1, 16]: 12.1 nM; Concentration [1, 17]: < LLOQ; half-life [2]: 78.3 h; AUC(0-t) [2]: 0.0877 µM·h; Exposure relative to Sum of quantified compounds [2]: 13%; Exposure relative to ibrutinib [2]: 27%
CSCCC(=O)N1CCC[C@@H](n2nc(-c3ccc(Oc4ccccc4)cc3)c3c(N)ncnc32)C1 [S-methyl-ibrutinib]	–	–	–	–	–	–	–	–	–	–	–	–	–	–	–	–	–	–	–	–	detection as secondary bioactivation-metabolite of ICYS ([3]; after 48 h with ibrutinib): detected
CC1(C)C[C@@H]1C(=O)N/C(=C\CCCCSC[C@H](N)C(=O)O)C(=O)O [cilastatin]	–	–	–	–	–	–	–	–	–	–	–	–	–	–	–	–	–	–	–	–	IC50 [4]: 100 µM
C=C(CC)C(=O)c1ccc(OCC(=O)O)c(Cl)c1Cl [ethacrynic acid]	–	–	–	–	–	–	–	–	–	–	–	–	–	–	–	–	–	–	–	–	IC97 [5]: 15 µM; effect on formation of IGSH in ciPTEC lysate [6]: inhibited
Nc1ncnc2c1c(-c1ccc(Oc3ccccc3)cc1)nn2C1CCCN(C(=O)CCSC2OC(C(=O)O)C(O)C(O)C2O)C1 (centres unmarked) [ibrutinib-S-glucuronide]	–	–	–	–	–	–	–	–	–	–	–	–	–	–	–	–	–	–	–	–	detection as secondary bioactivation-metabolite of ICYS ([3]; 4 h incubation with ibrutinib): clearly found
